Literature values as cited in patent US8568753B2, “Delivery system” (Starpharma Pty Limited, priority 2005, dated 2013).

Tested on: herpes simplex virus type 2 (HSV-2), Strain G
Details: previous studies

nonoxynol-9
relative susceptibility to HSV-2 infection vs control animals: 29.7 times | animals infected with HSV-2 (low-dose inoculum): 29 out of 42
